Assay results taken from patent US20240122865A1, “Methods of Protecting RNA” (Pfizer Inc., priority 2021, published 2024).

Assays:
Type in all cases: biochemical, Trichoderma atroviride
FgenL model RNA [1] = assay: TapeStation Assay, FgenL model RNA; parameters: Conc. FgenL#1 / Conc. FgenL#2: unit not given here; conditions: for % Control N = 1 / % Control N = 2 / % Control Average: FgenL RNA, 20 mM amino acids, 50 mM CAPS pH 11, 50° C. 15 min; for % Control N = 1 / % Control N = 2: vs Time 0; for % Control Average: vs Time 0, Avg N=2; for Conc. FgenL#1 / Conc. FgenL#2: intact FgenL RNA after 15 min at 50° C.; for Conc. FgenL#1: 20 mM amino acids in 50 mM CAPS pH 11, run #1; for Conc. FgenL#2: 20 mM amino acids in 50 mM CAPS pH 11, run #2
Outline: (§1)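 Chi18 or FgenL model RNA at 50 ng/μL in 50 mM CAPS pH 11 was mixed with amino acids (stocks in CAPS, readjusted to >pH 11) and heated at 50° C for 0 or 15 minutes; time-0 samples stayed on ice. Intact RNA was measured by capillary electrophoresis with optical detection and compared with a no-degradation baseline.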

Chi18 model RNA [2] = assay: Droplet Digital Polymerase Chain Reaction (ddPCR) Assay, Chi18; conditions: percent protection, pH 11.0, 30° C., 16 hours, n = 2
Outline: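 Chi18 (25 fg/μL) or FgenL (10 fg/μL) RNA at pH 11.0 incubated 16 h with amino acids (10-point half-log series, ~300 mM top stock in CAPS), at 30° C or 44° C respectively. Intact RNA reverse-transcribed, ddPCR 5′-positive droplet fraction taken as protection; EC50 from four-parameter logistic fit.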

FgenL mRNA construct = assay: Size Exclusion Base Hydrolysis Degradation Assay, FgenL; conditions: 25 mM amino acid; for T0 R1 peak area at 250 nm: FgenL 0.1 mg/mL, 50 mM CAPS, T=0, replicate 1; for T2 Avg, peak area as percentage of T=0 / T2 R1 peak area at 250 nm / T10 Avg, peak area as percentage of T=0 / T10 R1 peak area at 250 nm / T24 Avg, peak area as percentage of T=0 / T24 R1 peak area at 250 nm / T0 Avg, peak area as percentage of T=0: FgenL; for T2 Avg, peak area as percentage of T=0 / T2 R1 peak area at 250 nm / T10 Avg, peak area as percentage of T=0 / T10 R1 peak area at 250 nm / T24 Avg, peak area as percentage of T=0 / T24 R1 peak area at 250 nm: 50 mM CAPS pH 11, room temperature; for T2 Avg, peak area as percentage of T=0 / T2 R1 peak area at 250 nm: 2 hrs; for T2 R1 peak area at 250 nm / T10 R1 peak area at 250 nm / T24 R1 peak area at 250 nm: replicate 1; for T10 Avg, peak area as percentage of T=0 / T10 R1 peak area at 250 nm: 10 hrs; for T24 Avg, peak area as percentage of T=0 / T24 R1 peak area at 250 nm: 24 hrs; for T0 Avg, peak area as percentage of T=0: T=0 (reference)
Outline: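 mRNA (diluted to 1.0 mg/mL) preincubated 1 h with amino acid, then brought to pH 11 with CAPS and NaOH at room temperature. Intact mRNA quantified by size-exclusion UPLC, peak area at 250 nm in the T=0 elution window, expressed as percentage of T=0 at 2, 10 and 24 hrs.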

Chi18 model RNA [3] = assay: TapeStation Assay, Chi18 model RNA; parameters: Conc. chi18#1 / Conc. chi18#2: unit not given here; conditions: for % Control N = 1 / % Control N = 2 / % Control Avg.: Chi18 RNA, 20 mM amino acids, 50 mM CAPS pH 11, 50° C. 15 min; for % Control N = 1 / % Control N = 2: vs Time 0; for % Control Avg.: vs Time 0, Avg N=2; for Conc. chi18#1 / Conc. chi18#2: intact Chi18 RNA after 15 min at 50° C.; for Conc. chi18#1: 20 mM amino acids in 50 mM CAPS pH 11, run #1; for Conc. chi18#2: 20 mM amino acids in 50 mM CAPS pH 11, run #2
Outline: as §1

FgenL model RNA [4] = conditions: percent protection, pH 11.0, 44° C., 16 hours, n = 2

| SMILES | % Control N = 1 (FgenL model RNA [1]) [%] | % Control N = 2 (FgenL model RNA [1]) [%] | % Control Average (FgenL model RNA [1]) [%] | Conc. FgenL#1 (FgenL model RNA [1]) | Conc. FgenL#2 (FgenL model RNA [1]) | EC50 (Chi18 model RNA [2]) [mM] | T0 R1 peak area at 250 nm (FgenL mRNA construct) | T2 Avg, peak area as percentage of T=0 (FgenL mRNA construct) [%] | T2 R1 peak area at 250 nm (FgenL mRNA construct) | T10 Avg, peak area as percentage of T=0 (FgenL mRNA construct) [%] | T10 R1 peak area at 250 nm (FgenL mRNA construct) | T24 Avg, peak area as percentage of T=0 (FgenL mRNA construct) [%] | T24 R1 peak area at 250 nm (FgenL mRNA construct) | T0 Avg, peak area as percentage of T=0 (FgenL mRNA construct) [%] | % Control N = 1 (Chi18 model RNA [3]) [%] | % Control N = 2 (Chi18 model RNA [3]) [%] | % Control Avg. (Chi18 model RNA [3]) [%] | Conc. chi18#1 (Chi18 model RNA [3]) | Conc. chi18#2 (Chi18 model RNA [3]) | EC50 (FgenL model RNA [4]) [mM] |
| --- | --- | --- | --- | --- | --- | --- | --- | --- | --- | --- | --- | --- | --- | --- | --- | --- | --- | --- | --- | --- |
| N[C@@H](Cc1ccccc1)C(=O)O [Phenylalanine] | 13.8 | 6.9 | 10.4 | 4.76 | 2.4 | > 18 | 18152 | 62.2 | 12662 | 1.7 | 605 | 0.0 | 0 | 100.0 | 17.2 | 25.3 | 21.3 | 9.19 | 13.4 | > 30 |
| O=C(O)[C@@H]1CCCN1 [Proline] | 21.8 | 20.3 | 21.0 | 7.52 | 7.03 | > 30 | 17907 | 16.6 | 3380 | 0.0 | 0 | 0.0 | 0 | 100.0 | 37.0 | 34.6 | 35.8 | 19.7 | 18.3 | > 30 |
| N[C@@H](CO)C(=O)O [Serine] | 37.7 | 31.4 | 34.5 | 13 | 10.9 | > 30 | 17044 | 46.6 | 7928 | 11.3 | 0 | 0.0 | 0 | 100.0 | 42.2 | 42.2 | 42.2 | 22.5 | – | > 30 |
